Measured values: US12514832B2, “Methods for using low-dose colchicine after myocardial infarction” (INSTITUT DE CARDIOLOGIE DE MONTREAL, priority 2019, dated 2026)
Several values for one entry are separate records, joined by “and”; a condition that tells them apart may be missing. Identical values can stand only once.

How the values were obtained:
[1] = test system: patients with stable coronary disease; settings: LoDoCo, 0.5 mg once daily, 532 patients, not placebo-controlled; cited from earlier work
[2] = test system: rs149354567 (CDRT8/PMP22, chromosome 17); rs10811106 (SAXO1, chromosome 9); assay: COLCOT pharmacogenomic GWAS and Cox / recurrent-event analyses of the primary efficacy end point by genotype; assay type: in vivo, human; settings: for Primary end point, HR (95% CI) for rs149354567 minor (GA) versus major (G) allele: Cox, controlling for age, sex, C1-C10; for Recurrent primary end point events, Hazard Ratio (95% CI), Andersen-Gill model / Recurrent primary end point events, Hazard Ratio (95% CI), WLW model K = 2, 1st Event / Recurrent primary end point events, Hazard Ratio (95% CI), WLW model K = 2, 2nd Event / Recurrent primary end point events, Hazard Ratio (95% CI), WLW model K = 2, Average / Recurrent primary end point events, Rate Ratio (95% CI), Negative binomial model: colchicine vs placebo
Description: FIG. 3 is a Manhattan plot of a Genome-wide Association Study (GWAS) with common single-nucleotide polymorphisms (SNPs) with minor allele frequency (MAF)≥5% for the primary efficacy end point using a survival analysis (coxph) regression with all patients in colchicine treatment arm (compliant ITT pgx population) in the COLCOT cohort, controlling for age, sex, principal components (C1-C10) with a threshold of 5.000E-08 (4,462,492 variants and 702 samples).
FIG. 4 is a plot of SNPs located on chromosome 17 (from 14,623,118 to 15,623,118 bp) for the primary efficacy end point using a survival analysis (coxph) regression with all patients in colchicine treatment arm (compliant ITT pgx population) in the COLCOT cohort, controlling for age, sex, principal components (C1-C10) with a threshold of 5.000E-08 (4,462,492 variants and 702 samples).
(§1) FIG. 8 is a Manhattan plot of GWAS with common SNPs with MAF≥5% for the primary efficacy endpoint using a survival analysis (coxph) regression with male patients in colchicine treatment arm (compliant ITT pgx population) in the COLCOT cohort, controlling for age, sex specific principal components (SC1-SC10) with a threshold of 5.000E-08 (4,455,743 variants and 576 samples).
as §1, with “FIG. 9” for “FIG. 8”, “a” for “a Manhattan”, “of single-nucleotide polymorphisms (SNPs) located on chromosome 9 (from 18,537,533 to 19,537,533 bp)” for “of GWAS with common SNPs with MAF≥5%”, “for” for “for the”
A Genome-wide Association Study (GWAS) was performed for the COLCOT primary efficacy end points. The primary efficacy endpoints were, the earliest occurrence of: cardiovascular death, resuscitated cardiac arrest, acute myocardial infarction, stroke, or urgent hospitalization for angina requiring coronary revascularization.
A plot of SNPs located on chromosome 17 (from 14,623,118 to 15,623, 118 bp) for the primary efficacy end point using a survival analysis (coxph) regression with all patients in colchicine treatment arm (compliant ITT pgx population) in the COLCOT cohort is shown in FIG. 4. Within this region, SNP rs149354567 was identified for further analysis (Table 10). SNP rs149354567 is intergenic for the CDR8T (CMT1A duplicated region transcript 8) gene and the PMP22 (peripheral myelin protein 22) gene.
A Cox statistical analysis for the primary endpoint comparing the chromosome 17 SNP rs149354567 minor versus major alleles by treatment arms is shown in Table 11 below.
A Cox statistical analysis for the primary end point comparing colchicine versus placebo for SNP rs149354567 genotypes is shown in Table 12 below.
The above analysis is based on time to first event among the components of the primary end point. Three other analyses were also considered to account for multiple events within subjects. These analyses make use of all events, including the ones that occur after the first. The Wei, Lin, and Weissfeld (WLW) marginal model, the Andersen and Gill (AG) model, and the negative binomial model were used.
A further region of the genome with a genetic variant, rs10811106, that, in males, is associated with efficacy of colchicine in the prevention of cardiovascular events in participants recruited within 30 days of a myocardial infarction (acute coronary syndrome) was identified using similar statistical analyses (FIG. 8). SNP rs10811106 is intronic in the SAXO1 (stabilizer of axonemal microtubules 1) gene (FIG. 9). SNP rs10811106 was associated with the primary efficacy endpoint of COLCOT (composite of cardiovascular death, resuscitated cardiac arrest, myocardial infarction, stroke, or urgent hospitalization for angina requiring coronary revascularization) in the colchicine treatment arm (P=5.8×10^−8).

[3] = colchicine arm N=2, rs149354567 genotype GA/GA
[4] = colchicine arm N=102, rs149354567 genotype G/GA
[5] = colchicine arm N=585, rs149354567 genotype G/G
[6] = colchicine arm N=689, all rs149354567 genotypes
[7] = rs10811106 chr 9, EA T vs NEA C, N 564, 30 events

## COc1cc2c(c(OC)c1OC)-c1ccc(OC)c(=O)cc1[C@@H](NC(C)=O)CC2 [Colchicine, colchicine]
[1]
  cardiovascular events versus no colchicine (in words): fewer cardiovascular events than those not receiving colchicine
[2]; carriers of genotype G-/G- at rs149354567
  fewer cardiovascular events with colchicine compared to placebo: 40%
[2]; colchicine arm
  Recurrent primary end point events, Hazard Ratio (95% CI) for one unit increase of rs149354567 dosage, Andersen-Gill model: 4.55 (2.45; 8.46)
  Recurrent primary end point events, Hazard Ratio (95% CI) for one unit increase of rs149354567 dosage, WLW model K = 2, 1st Event: 5.30 (2.90; 9.70)
  Recurrent primary end point events, Hazard Ratio (95% CI) for one unit increase of rs149354567 dosage, WLW model K = 2, 2nd Event: 3.96 (0.99; 15.80)
  Recurrent primary end point events, Hazard Ratio (95% CI) for one unit increase of rs149354567 dosage, WLW model K = 2, Average: 5.28 (2.88; 9.66)
  Recurrent primary end point events, Rate Ratio (95% CI) for one unit increase of rs149354567 dosage, Negative binomial model: 4.58 (2.40; 8.74)
[2]; colchicine arm N=2, genotype GA/GA
  Primary end point events rate per 100 subject-months: 0 per 100 subject-months
[2]; colchicine arm N=2, genotype GA/GA, 24 follow-up months
  Total number of primary end point events: 0
[2]; colchicine arm N=2, rs149354567 GA/GA
  Primary end point, patients with events (at least one event): 0
[2]; [3]
  Number of subjects with 0 primary end point events: 2
  Number of subjects with 1 primary end point event: 0
  Number of subjects with 2 primary end point events: 0
  Number of subjects with 3 primary end point events: 0
  Number of subjects with 4 primary end point events: 0
[2]; colchicine arm N=102, genotype G/GA
  Primary end point events rate per 100 subject-months: 0.71 per 100 subject-months
[2]; colchicine arm N=102, genotype G/GA, 2678 follow-up months
  Total number of primary end point events: 19
[2]; colchicine arm N=102, rs149354567 G−/GA
  Primary end point, patients with events (at least one event): 17
[2]; [4]
  Number of subjects with 0 primary end point events: 85
  Number of subjects with 1 primary end point event: 15
  Number of subjects with 2 primary end point events: 2
  Number of subjects with 3 primary end point events: 0
  Number of subjects with 4 primary end point events: 0
[2]; colchicine arm N=104, rs149354567 G−/GA+GA/GA
  Primary end point, patients with events: 17
[2]; colchicine arm N=585, genotype G/G
  Primary end point events rate per 100 subject-months: 0.16 per 100 subject-months
[2]; colchicine arm N=585, genotype G/G, 14370 follow-up months
  Total number of primary end point events: 23
[2]; colchicine arm N=585, rs149354567 G−/G−
  Primary end point, patients with events (at least one event): 20
[2]; [5]
  Number of subjects with 0 primary end point events: 565
  Number of subjects with 1 primary end point event: 17
  Number of subjects with 2 primary end point events: 3
  Number of subjects with 3 primary end point events: 0
  Number of subjects with 4 primary end point events: 0
[2]; [6]
  Number of subjects with 0 primary end point events: 652
  Number of subjects with 1 primary end point event: 32
  Number of subjects with 2 primary end point events: 5
  Number of subjects with 3 primary end point events: 0
  Number of subjects with 4 primary end point events: 0
  Primary end point events rate per 100 subject-months: 0.25 per 100 subject-months
[2]; colchicine arm N=689, all rs149354567 genotypes, 17072 follow-up months
  Total number of primary end point events: 42
[2]; colchicine arm N=689, all rs149354567 genotypes, compliant ITT pgx population
  Primary end point, patients with events (at least one event): 37
[2]; colchicine arm, all rs149354567 genotypes
  Primary end point, % of events: 5.4%
[2]; colchicine arm, males + females, compliant ITT pgx population
  Primary end point, hr per effect allele, rs75780450 (T vs C): 4.611
[2]; colchicine arm, males only
  Primary end point, hr per effect allele, rs1854156 (C vs G): 5.104
  Primary end point, hr per effect allele, rs10118790 (A vs G): 5.05
  Primary end point, hr per effect allele, rs10811106 (T vs C): 5.503
  Primary end point, hr per effect allele, rs10963895 (A vs G): 4.191
  Primary end point, hr per effect allele, rs28733572 (C vs G): 5.043
[2]; colchicine arm, rs149354567 G−/GA
  Primary end point, % of events: 16.7%
[2]; colchicine arm, rs149354567 G−/GA+GA/GA
  Primary end point, % of events: 16.3%
[2]; colchicine arm, rs149354567 G−/G−
  Primary end point, % of events: 3.4%
[2]; colchicine arm, compliant ITT pgx population
  Primary end point, HR (95% CI) for rs149354567 minor (GA) versus major (G) allele: 5.30 (2.84-9.89)
[2]; colchicine arm, compliant ITT pgx population, listed as colchicine
  Primary end point, HR (95% CI) for rs149354567 minor (GA) versus major (G) allele: 5.30 and 5.299
[2]; all rs149354567 genotypes
  Recurrent primary end point events, Hazard Ratio (95% CI), Andersen-Gill model: 0.61 (0.39; 0.96)
  Recurrent primary end point events, Hazard Ratio (95% CI), WLW model K = 2, 1st Event: 0.82 (0.53; 1.28)
  Recurrent primary end point events, Hazard Ratio (95% CI), WLW model K = 2, 2nd Event: 0.28 (0.10; 0.73)
  Recurrent primary end point events, Hazard Ratio (95% CI), WLW model K = 2, Average: 0.80 (0.52; 1.25)
  Recurrent primary end point events, Rate Ratio (95% CI), Negative binomial model: 0.57 (0.34; 0.94)
[2]; rs149354567 genotype G/G
  Recurrent primary end point events, Hazard Ratio (95% CI), Andersen-Gill model: 0.48 (0.27; 0.85)
  Recurrent primary end point events, Hazard Ratio (95% CI), WLW model K = 2, 1st Event: 0.60 (0.34; 1.04)
  Recurrent primary end point events, Hazard Ratio (95% CI), WLW model K = 2, 2nd Event: 0.25 (0.07; 0.85)
  Recurrent primary end point events, Hazard Ratio (95% CI), WLW model K = 2, Average: 0.59 (0.34; 1.03)
  Recurrent primary end point events, Rate Ratio (95% CI), Negative binomial model: 0.43 (0.23; 0.82)
[2]; rs149354567 genotype G/G, listed as colchicine
  Recurrent primary end point events, Hazard Ratio (95% CI), Andersen-Gill model: 0.48
[2]; rs149354567 genotype G/GA
  Recurrent primary end point events, Hazard Ratio (95% CI), Andersen-Gill model: 0.84 (0.34; 2.11)
  Recurrent primary end point events, Hazard Ratio (95% CI), WLW model K = 2, 1st Event: 1.62 (0.69; 3.79)
  Recurrent primary end point events, Hazard Ratio (95% CI), WLW model K = 2, 2nd Event: 0.17 (0.03; 1.02)
  Recurrent primary end point events, Hazard Ratio (95% CI), WLW model K = 2, Average: 1.35 (0.58; 3.12)
  Recurrent primary end point events, Rate Ratio (95% CI), Negative binomial model: 0.91 (0.39; 2.08)
[2]; males, genotype C/C at rs10811106
  fewer cardiovascular events with colchicine compared to placebo: 54%
[2]; rs10811106 CT (16%), N total 182
  Primary end point in males only, HR (95% CI) colchicine versus placebo: 2.49 (0.92-6.75)
[2]; [7]
  Coefficient, genetic association, chromosome 9 locus (primary efficacy end point): 1.705
  HR (hazard ratio), genetic association, chromosome 9 locus (primary efficacy end point): 5.50
